Laboratory results: article PMC8775250, “Cryo-EM Structure of the Rhodobacter sphaeroides Light-Harvesting 2 Complex at 2.1 Å” (Biochemistry, 2021)

Target: T1, Rba. sphaeroides LH2 complex (light-harvesting 2 antenna, LH2 αβ) (Cereibacter sphaeroides, UniProt Q3J144+Q3J145)
T1 construct: gene pucA; native untagged complex purified from Rba. sphaeroides B7 membranes in LDAO; nonamer of αβ heterodimers; alpha N-terminal carboxymethionine; beta C-terminus Gly51
Experiment: cryo-EM structure ([…] Å)
Format: binding
Details: one carotenoid per αβ heterodimer (9 per nonamer); native bound pigment; pH 7.8, LDAO

T1 sequence (Q3J145 whole entry): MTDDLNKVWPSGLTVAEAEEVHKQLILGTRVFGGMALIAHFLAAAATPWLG
T1 sequence (Q3J144 1-50): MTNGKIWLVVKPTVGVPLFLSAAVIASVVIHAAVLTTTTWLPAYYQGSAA

COC(C)(C)C/C=C/C(C)=C/C=C/C(C)=C/C=C/C(C)=C/C=C/C=C(C)/C=C/C=C(\C)CC/C=C(\C)CCC=C(C)C [spheroidene]
cryo-EM structure (2.1 Å): the carotenoid spheroidene adopts an all-trans conformation as it winds through the LH2 complex
